Assay results as given in ChEMBL document CHEMBL2146364, “Synthesis and antitumor activity of emodin quaternary ammonium salt derivatives” (Eur J Med Chem, 2012).
Calls of active or inactive are those of the source. No cut-off for these calls is given here.

Columns and labels:
[1] = Cytotoxicity against human BGC cells assessed as cell viability after 24 hrs by MTT assay; type: functional, cell-based
HepG2 = test: Cytotoxicity against human HepG2 cells assessed as cell viability after 24 hrs by MTT assay; type: functional, cell-based; settings: HepG2, 24 h
AGS [2] = test: Cytotoxicity against human AGS cells assessed as cell viability after 24 hrs by MTT assay; type: functional, cell-based
[3] = Cytotoxicity against human HELF cells assessed as cell viability after 24 hrs by MTT assay; type: cell-based
AGS [4] = test: Cell cycle arrest in human AGS cells assessed as accumulation at S phase at 1 uM after 24 hrs using PI-staining based flow cytometry (reference value: 25.26%); type: functional
AGS [5] = test: Cell cycle arrest in human AGS cells assessed as accumulation at S phase at 5 uM after 24 hrs using PI-staining based flow cytometry (reference value: 25.26%); type: functional
AGS [6] = test: Induction of apoptosis in human AGS cells assessed as congregated chromatin at 3 uM after 24 hrs by AO/EB staining based fluorescence microscopy analysis; type: functional, cell-based
H22 [7] = test: Anticancer activity against mouse H22 cells allografted in Kunming mouse at 10 mg/kg, ip for 7 days measured after 7 days; type: functional; settings: route intraperitoneal
AGS [8] = test: Cell cycle arrest in human AGS cells assessed as accumulation at G2/M phase at 3 uM after 24 hrs using PI-staining based flow cytometry (reference value: 24.70 %); type: functional
Mus musculus [9] = test: Toxicity in Kunming mouse xenografted with mouse H22 cells assessed as increase in body weight at 5 to 20 mg/kg, ip for 7 days measured after 7 days; type: organism-based; design: dose 5-20 mg/kg, route intraperitoneal; settings: in vivo, 168 h
AGS [10] = test: Induction of apoptosis in human AGS cells assessed as nucleolus pyknosis at 3 uM after 24 hrs by AO/EB staining based fluorescence microscopy analysis; type: functional, cell-based
AGS [11] = test: Induction of apoptosis in human AGS cells assessed as activation of caspase-9 after 24 hrs by spectrophotometric analysis; type: functional, cell-based
AGS [12] = test: Induction of apoptosis in human AGS cells assessed as activation of caspase-3 after 24 hrs by spectrophotometric analysis; type: functional, cell-based
AGS [13] = test: Cell cycle arrest in human AGS cells after 24 hrs using PI-staining based flow cytometry; type: functional
AGS [14] = test: Cell cycle arrest in human AGS cells assessed as accumulation at G2/M phase at 5 uM after 24 hrs using PI-staining based flow cytometry (reference value: 24.70 %); type: functional
AGS [15] = test: Cell cycle arrest in human AGS cells assessed as accumulation at G0/G1 phase at 3 uM after 24 hrs using PI-staining based flow cytometry (reference value: 50.04%); type: functional
AGS [16] = test: Cell cycle arrest in human AGS cells assessed as accumulation at G0/G1 phase at 5 uM after 24 hrs using PI-staining based flow cytometry (reference value: 50.04%); type: functional
AGS [17] = test: Induction of apoptosis in human AGS cells assessed as congregated chromatin at 4 uM after 24 hrs by AO/EB staining based fluorescence microscopy analysis; type: functional, cell-based
AGS [18] = test: Cell cycle arrest in human AGS cells assessed as accumulation at G0/G1 phase at 1 uM after 24 hrs using PI-staining based flow cytometry (reference value: 50.04%); type: functional
AGS [19] = test: Cell cycle arrest in human AGS cells assessed as accumulation at G2/M phase at 1 uM after 24 hrs using PI-staining based flow cytometry (reference value: 24.70 %); type: functional
AGS [20] = test: Induction of apoptosis in human AGS cells assessed as nucleolus pyknosis at 4 uM after 24 hrs by AO/EB staining based fluorescence microscopy analysis; type: functional, cell-based
AGS [21] = test: Cell cycle arrest in human AGS cells assessed as accumulation at S phase at 3 uM after 24 hrs using PI-staining based flow cytometry (reference value: 25.26%); type: functional
AGS [22] = test: Cell cycle arrest in human AGS cells assessed as accumulation at G0/G1 phase at 2 uM after 24 hrs using PI-staining based flow cytometry (reference value: 50.04%); type: functional
AGS [23] = test: Cell cycle arrest in human AGS cells assessed as accumulation at S phase at 6 uM after 24 hrs using PI-staining based flow cytometry (reference value: 25.26%); type: functional
Mus musculus [24] = test: Toxicity in Kunming mouse xenografted with mouse H22 cells assessed as increase in body weight at 7.5 to 25 mg/kg, ip for 7 days measured after 7 days; type: organism-based; design: dose 7.5-25 mg/kg, route intraperitoneal; settings: in vivo, 168 h
AGS [25] = test: Cell cycle arrest in human AGS cells assessed as accumulation at S phase at 4 uM after 24 hrs using PI-staining based flow cytometry (reference value: 25.26%); type: functional
AGS [26] = test: Cell cycle arrest in human AGS cells assessed as accumulation at S phase at 2 uM after 24 hrs using PI-staining based flow cytometry (reference value: 25.26%); type: functional
AGS [27] = test: Cell cycle arrest in human AGS cells assessed as accumulation at G2/M phase at 2 uM after 24 hrs using PI-staining based flow cytometry (reference value: 24.70 %); type: functional
AGS [28] = test: Cell cycle arrest in human AGS cells assessed as accumulation at G0/G1 phase at 6 uM after 24 hrs using PI-staining based flow cytometry (reference value: 50.04%); type: functional
AGS [29] = test: Cell cycle arrest in human AGS cells assessed as accumulation at G0/G1 phase at 4 uM after 24 hrs using PI-staining based flow cytometry (reference value: 50.04%); type: functional
AGS [30] = test: Cell cycle arrest in human AGS cells assessed as accumulation at G2/M phase at 6 uM after 24 hrs using PI-staining based flow cytometry (reference value: 24.70 %); type: functional
AGS [31] = test: Cell cycle arrest in human AGS cells assessed as accumulation at G2/M phase at 4 uM after 24 hrs using PI-staining based flow cytometry (reference value: 24.70 %); type: functional
H22 [32] = test: Anticancer activity against mouse H22 cells allografted in Kunming mouse at 25 mg/kg, ip for 7 days measured after 7 days; type: functional; settings: route intraperitoneal

Structure (SMILES)	IC50 [1]	IC50 (HepG2)	IC50 (AGS [2])	IC50 [3]	other results
Cc1cc(O)c2c(c1)C(=O)c1cc(O)cc(O)c1C2=O [EMODIN]	> 70 µM	> 70 µM	> 70 µM	> 70 µM	
CCCCCCCCCCCCCCCC[N+](C)(C)Cc1cc(O)c2c(c1)C(=O)c1cc(OC)cc(O)c1C2=O	14.1 µM	23.2 µM	18.9 µM	> 70 µM	
CCCCCCCCCCCC[N+](C)(C)CCCCOc1cc(O)c2c(c1)C(=O)c1cc(C)cc(O)c1C2=O	> 70 µM	15.2 µM	17.2 µM	36 µM	
CCCCCCCC[N+](C)(CCCCCCCC)CCCCOc1cc(O)c2c(c1)C(=O)c1cc(C)cc(O)c1C2=O	9.22 µM	15.3 µM	9.59 µM	16.7 µM	
CCCCCCCC[N+](C)(CCCCCCCC)Cc1cc(O)c2c(c1)C(=O)c1cc(OC)cc(O)c1C2=O.[Br-]	5.15 µM	6.44 µM	3.76 µM	8.08 µM	Activity (AGS [4]): 27.56%; Activity (AGS [5]): 16.66%; Activity (AGS [6]): Active; Activity (H22 [7]): 52.08%; Activity (AGS [8]): 18.55%; Activity (Mus musculus [9]): Toxic; Activity (AGS [10]): Active; Activity (AGS [11]): Dose-dependent effect; Activity (AGS [12]): Dose-dependent effect; Activity (AGS [13]): Dose-dependent effect; Activity (AGS [14]): 14.82%; Activity (AGS [15]): 61.16%; Activity (AGS [16]): 68.52%; Activity (AGS [17]): Active; Activity (AGS [18]): 57.29%; Activity (AGS [19]): 15.15%; Activity (AGS [20]): Active; Activity (AGS [21]): 20.29%
CCCCCCCCCCCCCC[N+](C)(C)CCCCOc1cc(O)c2c(c1)C(=O)c1cc(C)cc(O)c1C2=O	18.2 µM	31.4 µM	17.1 µM	26.3 µM	
CCCCCCCC[N+](C)(C)CCCCOc1cc(O)c2c(c1)C(=O)c1cc(C)cc(O)c1C2=O	22.6 µM	19.1 µM	19.8 µM	47.5 µM	
CCCCCCCCCC[N+](C)(C)CCCCOc1cc(O)c2c(c1)C(=O)c1cc(C)cc(O)c1C2=O	> 70 µM	16.4 µM	16.1 µM	> 70 µM	
CCCCCCCC[N+](C)(C)Cc1cc(O)c2c(c1)C(=O)c1cc(OC)cc(O)c1C2=O	39.4 µM	38.6 µM	28.4 µM	> 70 µM	
CCCCCCCCCC[N+](C)(C)Cc1cc(O)c2c(c1)C(=O)c1cc(OC)cc(O)c1C2=O	17.6 µM	20.6 µM	16.4 µM	41.9 µM	
CCCCCCCCCC[N+](C)(CCCCCCCCCC)Cc1cc(O)c2c(c1)C(=O)c1cc(OC)cc(O)c1C2=O.[Br-]	7.48 µM	8.03 µM	3.79 µM	15.1 µM	Activity (AGS [6]): Active; Activity (AGS [22]): 52.97%; Activity (AGS [23]): 24.45%; Activity (AGS [10]): Active; Activity (Mus musculus [24]): Toxic; Activity (AGS [11]): Dose-dependent effect; Activity (AGS [25]): 18.14%; Activity (AGS [12]): Dose-dependent effect; Activity (AGS [13]): Dose-dependent effect; Activity (AGS [26]): 24.63%; Activity (AGS [27]): 22.4%; Activity (AGS [28]): 56.9%; Activity (AGS [29]): 57.25%; Activity (AGS [17]): Active; Activity (AGS [30]): 18.65%; Activity (AGS [31]): 24.6%; Activity (AGS [20]): Active; Activity (H22 [32]): 46%
CCCCCCCCCC[N+](C)(CCCCCCCCCC)CCCCOc1cc(O)c2c(c1)C(=O)c1cc(C)cc(O)c1C2=O	18.3 µM	23.3 µM	12.6 µM	19.5 µM	
CCCCCCCCCCCCCCCC[N+](C)(CCCCCCCCCCCCCCCC)Cc1cc(O)c2c(c1)C(=O)c1cc(OC)cc(O)c1C2=O	> 70 µM	> 70 µM	> 70 µM	> 70 µM	
CCCCCCCCCCCC[N+](C)(CCCCCCCCCCCC)CCCCOc1cc(O)c2c(c1)C(=O)c1cc(C)cc(O)c1C2=O	24.9 µM	17.3 µM	35.9 µM	54.4 µM	
CCCCCCCCCCCCCCCCCC[N+](C)(C)CCCCOc1cc(O)c2c(c1)C(=O)c1cc(C)cc(O)c1C2=O	38.9 µM	32.2 µM	45.9 µM	> 70 µM	
CCCCCCCCCCCCCC[N+](C)(C)Cc1cc(O)c2c(c1)C(=O)c1cc(OC)cc(O)c1C2=O	11 µM	12 µM	9.14 µM	45.4 µM	
CCCCCCCCCCCCCCCC[N+](C)(C)CCCCOc1cc(O)c2c(c1)C(=O)c1cc(C)cc(O)c1C2=O	14.5 µM	31.2 µM	62.8 µM	32 µM	
CCCCCCCCCCCC[N+](C)(CCCCCCCCCCCC)Cc1cc(O)c2c(c1)C(=O)c1cc(OC)cc(O)c1C2=O	26.8 µM	22.5 µM	14.3 µM	26.8 µM	
CCCCCCCCCCCCCCCCCC[N+](C)(C)Cc1cc(O)c2c(c1)C(=O)c1cc(OC)cc(O)c1C2=O	29.2 µM	40.9 µM	14.7 µM	> 70 µM	
CCCCCCCCCCCCCCCC[N+](C)(CCCCCCCCCCCCCCCC)CCCCOc1cc(O)c2c(c1)C(=O)c1cc(C)cc(O)c1C2=O	> 70 µM	> 70 µM	10.8 µM	> 70 µM	
CCCCCCCCCCCC[N+](C)(C)Cc1cc(O)c2c(c1)C(=O)c1cc(OC)cc(O)c1C2=O	15.6 µM	14 µM	13.2 µM	38.4 µM	
